Assay results published in the SangsterLogP compilation.

Structure (SMILES) | logP
COc1cc2c(cc1OC)CN(CCc1ccc(NC(=O)c3cccc4c(=O)c5cccc(OC)c5[nH]c34)cc1)CC2 | 4.82
CCCn1c(=O)c2[nH]c(C3CCCC3)nc2n(CCCF)c1=O | 2.83
Cn1c2c(c3ccccc31)C[C@@]1(O)[C@@H]3Cc4ccc(O)c5c4[C@@]1(CCN3CC1CC1)[C@H]2O5 | 4.28
COC(=O)C1C(c2ccc(I)cc2)CC2CCC1N2C (stereo not given) | 2.13
CCN1CCC[C@H]1CNC(=O)c1cc(I)cc(OC)c1OC | 2.73
CNCC(O)CCN1c2ccccc2N(c2ccccc2)S1(=O)=O (stereo not given) | 2.55
CCN1CCCC1CNC(=O)c1cc(Br)cc(OC)c1OC (stereo in doubt) | 2.37
Oc1ccccc1OC(c1ccccc1)C1CNCCO1 (stereo not given) | 1.92
CN1Cc2c(C(=O)OCCF)ncn2-c2ccc(F)cc2C1=O | 0.93
CCC(C)NC(=O)c1cc2ccccc2c(-c2ccccc2Cl)n1 (stereo not given) | 3.25
